Test results published in patent publication US7807658B2, “Use of GabaB receptor agonists” (AstraZeneca AB, priority 1999, dated 2010).

Which melting point does the source give for `NCC(=O)C[PH](=O)O` here?
Its melting point is 126 to 127 °C.
